These results are taken from patent publication US10975056B2 (GlaxoSmithKline Intellectual Property Development Limited, priority 2016, dated 2021).

The subject of experiment [1] is erythroid progenitor cells (EPCs). As to the kind of experiment: Fetal hemoglobin (HbF) ELISA in day 7 erythroid progenitor cells.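 Note: for fetal hemoglobin induction normalized to vehicle-treated cells.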 The format is cell-based, human. The following applies: Homo sapiens, Erythroid progenitor cell, HbF ELISA, day 7 EPCs, 5 days; read-out: EPC ELISA (pEC50 category) (converted). The method, boiled down:
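Read-out was OD450 from an HRP/TMB sandwich ELISA on lysates, normalized to DMSO-only control wells. Thawed day 7 EPCs from human marrow CD34+ cells had been treated for 5 days at 37° C with Compound A, 22 concentrations […].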
In general terms: ELISA stands for enzyme-linked immunosorbent assay.

The target in a further experiment is DNMT1 (Homo sapiens, UniProt P26358). As to the kind of experiment: DNMT1 biochemical activity, breaklight assay and/or SPA assay.
[2] abbreviates: binned activity in either the breaklight or the SPA assay, read-out: DNMT1 BioChemical (pIC50 category) (converted).
[3] abbreviates: binned activity in either the breaklight or the SPA assay.
[4] abbreviates: breaklight assay and/or SPA assay, repeated experimental runs, read-out: average pIC50 against DNMT1 (converted).

Where a name gives a salt, the structure may show the parent alone. Read-outs that look alike come from different tables or passages of the source.

Sequence of DNMT1 (P26358 whole entry, looked up): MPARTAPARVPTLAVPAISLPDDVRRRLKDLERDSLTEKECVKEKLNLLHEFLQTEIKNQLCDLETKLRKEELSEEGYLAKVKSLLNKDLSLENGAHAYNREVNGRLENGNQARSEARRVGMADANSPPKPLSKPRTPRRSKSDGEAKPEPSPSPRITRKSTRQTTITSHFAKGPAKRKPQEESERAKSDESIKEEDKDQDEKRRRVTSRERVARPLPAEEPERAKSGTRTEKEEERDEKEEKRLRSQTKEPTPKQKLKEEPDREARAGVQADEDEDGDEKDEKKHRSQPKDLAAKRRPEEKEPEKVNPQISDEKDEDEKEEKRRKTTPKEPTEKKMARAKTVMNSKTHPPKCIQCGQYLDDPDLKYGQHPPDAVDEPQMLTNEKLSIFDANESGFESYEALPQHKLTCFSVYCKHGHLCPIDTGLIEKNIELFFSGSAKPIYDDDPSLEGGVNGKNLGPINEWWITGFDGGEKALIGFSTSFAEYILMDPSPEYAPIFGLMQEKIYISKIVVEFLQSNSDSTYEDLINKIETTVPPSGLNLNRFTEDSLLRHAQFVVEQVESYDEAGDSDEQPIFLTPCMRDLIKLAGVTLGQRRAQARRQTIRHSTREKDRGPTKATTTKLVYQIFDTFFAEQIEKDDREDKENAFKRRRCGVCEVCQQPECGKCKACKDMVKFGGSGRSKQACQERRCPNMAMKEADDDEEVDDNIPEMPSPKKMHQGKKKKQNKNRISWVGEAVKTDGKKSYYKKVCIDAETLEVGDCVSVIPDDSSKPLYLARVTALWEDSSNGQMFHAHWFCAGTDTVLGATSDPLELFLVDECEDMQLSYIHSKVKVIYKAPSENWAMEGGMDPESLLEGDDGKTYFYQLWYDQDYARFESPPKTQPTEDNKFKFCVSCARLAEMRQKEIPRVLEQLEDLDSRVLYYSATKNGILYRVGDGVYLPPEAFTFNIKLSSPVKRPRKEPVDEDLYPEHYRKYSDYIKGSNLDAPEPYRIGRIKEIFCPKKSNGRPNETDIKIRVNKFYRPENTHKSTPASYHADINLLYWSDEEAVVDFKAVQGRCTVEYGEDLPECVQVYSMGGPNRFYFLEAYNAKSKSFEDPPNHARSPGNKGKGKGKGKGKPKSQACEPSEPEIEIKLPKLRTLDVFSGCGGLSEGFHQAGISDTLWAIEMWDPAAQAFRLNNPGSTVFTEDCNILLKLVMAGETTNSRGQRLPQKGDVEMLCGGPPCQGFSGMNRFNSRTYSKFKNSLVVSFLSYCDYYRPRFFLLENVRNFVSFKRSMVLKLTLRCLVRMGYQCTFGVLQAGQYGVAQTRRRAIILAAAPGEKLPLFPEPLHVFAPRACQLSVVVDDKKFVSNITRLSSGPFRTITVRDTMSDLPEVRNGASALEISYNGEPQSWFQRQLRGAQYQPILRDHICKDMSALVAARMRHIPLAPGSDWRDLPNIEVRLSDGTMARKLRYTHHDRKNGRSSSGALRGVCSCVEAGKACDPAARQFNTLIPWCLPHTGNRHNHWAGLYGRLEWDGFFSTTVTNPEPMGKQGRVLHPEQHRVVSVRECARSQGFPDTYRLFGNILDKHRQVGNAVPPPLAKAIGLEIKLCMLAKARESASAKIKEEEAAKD

Regarding `CCc1c(C#N)c(SCc2ccc(CN)cc2)nc(N(C)C)c1C#N` [Example 272, 2-((4-(Aminomethyl)benzyl)thio)-6-(dimethylamino)-4-ethylpyridine-3,5-dicarbonitrile, Hydrochloride], in experiment [1], the EC50 was greater than 31600 nM. Besides, the IC50 on DNMT1 (setting [2]) was 1000 to 31600 nM.
Consider `CCc1c(C#N)c(SC(C(N)=O)c2ccccc2)nc(N(C)CCN2CCC[C@@H]2C)c1C#N` (stereo partly drawn) [Example 463, 2-((3,5-dicyano-4-ethyl-6-(methyl(2-((S)-2-methylpyrrolidin-1-yl)ethyl)amino)pyridin-2-yl)thio)-2-phenylacetamide], for which the EC50 in experiment [1] was less than 316 nM. Also, on DNMT1 (setting [3]), the “DNMT1 BioChemical (pIC50 category)” value is given as “D (Category D: ≥6.5)”.
As for `CCc1c(C#N)c(SCc2ccc(CS(C)(=O)=O)cc2)nc(N2CCCN(C)CC2)c1C#N` [Example 403, 4-Ethyl-2-(4-methyl-1,4-diazepan-1-yl)-6-(4-(methylsulfonylmethyl)benzylthio)pyridine-3,5-dicarbonitrile], in experiment [1], the EC50 is 316 to 1000 nM. The IC50 at DNMT1 (setting [2]) was 316 to 1000 nM.
For the compound `CCc1c(C#N)c(SC(C(N)=O)c2ccc(F)nc2)nc(N2CCCN(C)CC2)c1C#N` (stereo not drawn) [Example 228], in experiment [1], the EC50 is 316 to 1000 nM. Also, the IC50 at DNMT1 (setting [2]) was 1000 to 31600 nM.
For the compound `N#Cc1c(SC(C(N)=O)c2ccccc2)nc(N2CCC[C@@H](O)C2)c(C#N)c1C1CC1` (stereo partly drawn) [Example 32, 2-((3,5-dicyano-4-cyclopropyl-6-((R)-3-hydroxypiperidin-1-yl)pyridin-2-yl)thio)-2-phenylacetamide], the EC50 in experiment [1] is 1000 to 31600 nM. Also, the “DNMT1 BioChemical (pIC50 category)” value at DNMT1 (setting [3]) is reported as “D (Category D: ≥6.5)”.
For the compound `CCc1c(C#N)c(SCc2ccc(CNC(=O)CO)cc2)nc(N(C)CC(N)=O)c1C#N` [Example 371], in experiment [1], the EC50 was 1000 to 31600 nM. The IC50 on DNMT1 (setting [2]) was 316 to 1000 nM.
For `CCc1c(C#N)c(SC(C(N)=O)c2cccnc2F)nc(N2CCCN(C)CC2)c1C#N` (stereo not drawn) [Example 225], in that order: 316 to 1000 nM and 1000 to 31600 nM.
In the same order, the values of `CCc1c(C#N)c(SCc2ccc(N)c(F)c2)nc(N2CCCN(C)CC2)c1C#N` [Example 360, 2-((4-Amino-3-fluorobenzyl)thio)-4-ethyl-6-(4-methyl-1,4-diazepan-1-yl)pyridine-3,5-dicarbonitrile] are 1000 to 31600 nM and 316 to 1000 nM.
Regarding `CCc1c(C#N)c(SCc2ccc(OS(C)(=O)=O)cc2)nc(N2CCC(N)CC2)c1C#N` [Example 626, 4-(((6-(4-aminopiperidin-1-yl)-3,5-dicyano-4-ethylpyridin-2-yl)thio)methyl)phenyl methanesulfonate 2,2,2-trifluoroacetate], the EC50 in experiment [1] is less than 316 nM. The “DNMT1 BioChemical (pIC50 category)” value on DNMT1 (setting [3]) is on record as “D (Category D: ≥6.5)”. The “average pIC50 against DNMT1” value on DNMT1 (breaklight assay and/or SPA assay, repeated experimental runs, methanesulfonate 2,2,2-trifluoroacetate) is greater than 6.5. The IC50 at DNMT1 (setting [4]) was 200 nM.
Take `CCc1c(C#N)c(SCc2ccc(CNC(=O)Nc3ccccc3)cc2)nc(N2CCCN(C)CC2)c1C#N` [Example 100, 1-(4-(((3,5-Dicyano-4-ethyl-6-(4-methyl-1,4-diazepan-1-yl)pyridin-2-yl)thio)methyl)benzyl)-3-phenylurea]: the EC50 in experiment [1] is greater than 31600 nM. On DNMT1 (setting [2]), the IC50 was 316 to 1000 nM.
With `CCc1c(C#N)c(SC(C(N)=O)c2ccccc2)nc(N(C)Cc2cc[nH]n2)c1C#N` (stereo not drawn) [Example 356, 2-((6-(((1H-Pyrazol-3-yl)methyl)(methyl)amino)-3,5-dicyano-4-ethylpyridin-2-yl)thio)-2-phenylacetamide], the EC50 in experiment [1] is 316 to 1000 nM. Moreover, at DNMT1 (setting [3]), the “DNMT1 BioChemical (pIC50 category)” value is “D (Category D: ≥6.5)”.
Turning to `CCc1c(C#N)c(SC(C(N)=O)c2ccccc2)nc(N2CCO[C@@H](CNC(=O)CN)C2)c1C#N` (stereo partly drawn) [Example 598, 2-amino-N-(((2S)-4-(6-((2-amino-2-oxo-1-phenylethyl)thio)-3,5-dicyano-4-ethylpyridin-2-yl)morpholin-2-yl)methyl)acetamide], the EC50 in experiment [1] is 1000 to 31600 nM. Further, the “DNMT1 BioChemical (pIC50 category)” value at DNMT1 (setting [3]) was “D (Category D: ≥6.5)”.
On to `CCc1c(C#N)c(SC(C(N)=O)c2ccccc2)nc(N(C)CCOP(=O)(O)O)c1C#N` (stereo not drawn) [Example 151, 2-((6-((2-Amino-2-oxo-1-phenylethyl)thio)-3,5-dicyano-4-ethylpyridin-2-yl)(methyl)amino)ethyl dihydrocien phosphate], for which the EC50 in experiment [1] is greater than 31600 nM. Further, at DNMT1 (setting [2]), the IC50 was 1000 to 31600 nM.
Regarding `CCc1c(C#N)c(SC(C(N)=O)c2ccccc2)nc(N2CC(CN)C2)c1C#N` (stereo not drawn) [Example 671, 2-((6-(3-(aminomethyl)azetidin-1-yl)-3,5-dicyano-4-ethylpyridin-2-yl)thio)-2-phenylacetamide], the EC50 in experiment [1] is less than 316 nM. For the same compound, the “DNMT1 BioChemical (pIC50 category)” value on DNMT1 (setting [3]) is recorded as “D (Category D: ≥6.5)”.
As for `CCc1nc(SC(C(N)=O)c2ccccc2)c(C#N)c(CC)c1C#N` (stereo not drawn) [Example 351], the EC50 in experiment [1] was greater than 31600 nM. Besides, the IC50 at DNMT1 (setting [2]) was 316 to 1000 nM.
In the case of `N#Cc1c(SC(C(N)=O)c2ccccc2)nc(N2CC[C@H](N)C2)c(C#N)c1C1CC1` (stereo partly drawn) [Example 115, 2-({6-[(3S)-3-Aminopyrrolidin-1-yl]-3,5-dicyano-4-cyclopropylpyridin-2-yl}sulfanyl)-2-phenylacetamide], the EC50 in experiment [1] was less than 316 nM. Further, at DNMT1 (setting [3]), the “DNMT1 BioChemical (pIC50 category)” value is on record as “D (Category D: ≥6.5)”. At DNMT1 (breaklight assay and/or SPA assay, repeated experimental runs), the “average pIC50 against DNMT1” value was greater than 6.5. Further, the IC50 on DNMT1 (setting [4]) is 200 nM.
In the case of `CCc1c(C#N)c(SC(C(N)=O)c2ccccc2)nc(N(C)CCNCCF)c1C#N` (stereo not drawn) [Example 495, 2-((3,5-dicyano-4-ethyl-6-((2-((2-fluoroethyl)amino)ethyl)(methyl)amino)pyridin-2-yl)thio)-2-phenylacetamide], the EC50 in experiment [1] is 1000 to 31600 nM. Also, at DNMT1 (setting [3]), the “DNMT1 BioChemical (pIC50 category)” value is given as “D (Category D: ≥6.5)”.
On to `CCc1c(C#N)c(SC(C(N)=O)c2ccccc2)nc(N2CC(NC(=O)CO)C2)c1C#N` (stereo not drawn) [Example 288, N-(1-(6-((2-Amino-2-oxo-1-phenylethyl)thio)-3,5-dicyano-4-ethylpyridin-2-yl)azetidin-3-yl)-2-hydroxyacetamide], for which, in experiment [1], the EC50 was 1000 to 31600 nM. Moreover, the “DNMT1 BioChemical (pIC50 category)” value on DNMT1 (setting [3]) is listed as “D (Category D: ≥6.5)”.
For `CCc1c(C#N)c(SC(C(N)=O)c2ccccc2)nc(N2CCC(F)(CN)CC2)c1C#N` (stereo not drawn) [Example 618, 2-((6-(4-(aminomethyl)-4-fluoropiperidin-1-yl)-3,5-dicyano-4-ethylpyridin-2-yl)thio)-2-phenylacetamide hydrochloride], in that order: less than 316 nM and “D (Category D: ≥6.5)”.
With `CCc1c(C#N)c(SC(C(N)=O)c2ccccc2)nc(N(C)CC(=O)NO)c1C#N` (stereo not drawn) [Example 679, 2-((6-((2-amino-2-oxo-1-phenylethyl)thio)-3,5-dicyano-4-ethylpyridin-2-yl)(methyl)amino)-N-hydroxyacetamide], the EC50 in experiment [1] was 316 to 1000 nM. In addition, the “DNMT1 BioChemical (pIC50 category)” value at DNMT1 (setting [3]) was “D (Category D: ≥6.5)”.
Turning to `CCc1c(C#N)c(SC(C(N)=O)c2ccccc2)nc(N2CCc3[nH]nnc3C2)c1C#N` (stereo not drawn) [Example 359, 2-((3,5-Dicyano-6-(6,7-dihydro-1H-[1,2,3]triazolo[4,5-c]pyridin-5(4H)-yl)-4-ethylpyridin-2-yl)thio)-2-phenylacetamide], the EC50 in experiment [1] was 1000 to 31600 nM. In addition, the IC50 on DNMT1 (setting [2]) was 316 to 1000 nM.
For the compound `N#Cc1c(SC(C(N)=O)c2ccccc2)nc(N2CCC(N3CCOCC3)CC2)c(C#N)c1C1CC1` (stereo not drawn) [Example 16], the EC50 in experiment [1] was less than 316 nM. Further, the “DNMT1 BioChemical (pIC50 category)” value on DNMT1 (setting [3]) was “D (Category D: ≥6.5)”.
